Data published in article PMC4532424, “The Novel Cyclophilin Inhibitor CPI-431-32 Concurrently Blocks HCV and HIV-1 Infections via a Similar Mechanism of Action” (PLoS ONE, 2015).
Where two headings read alike, the source gives them in different places. Non-standard residues stand in square brackets, D forms with d. Residues, ends and D or L forms follow the SMILES beside them. NMeThr(4R-Me,4-(CH2)6NHAc) = CN[C@H](C(=O)O)[C@H](O)[C@H](C)CCCCCCNC(C)=O; NMeL = CN[C@@H](CC(C)C)C(=O)O; NMeV = CN[C@H](C(=O)O)C(C)C; dNMeA = CN[C@H](C)C(=O)O; Abu = CC[C@H](N)C(=O)O

What was measured:
HCV JFH-1 = assay: HIV-1/HCV co-culture co-infection, HCV core ELISA; type: cell-based
Protocol: CD4+ T-lymphocytes and Huh7.5.1 cells uninfected or infected for 3 h as described above were mixed in a single flask and HIV-1 and HCV replication monitored over a period of 3 weeks as described above.
HIV-1 target cells—CD4+ T-lymphocytes—and HCV target cells—hepatoma cells—were placed in a single chamber (flask), exposed to both HIV-1 and HCV, and viral replication monitored over time by p24 capsid and core ELISAs, respectively.
CD4+ T-lymphocytes (A) and Huh7.5.1 cells (B) (0.5 x 10^6 cells) (triplicates) were exposed to HIV-1 JR-CSF and HCV JFH-1. Drugs (2 μM) were added 3 h pre-viral exposure (top panels) or 3 days post-viral exposure (bottom panels). Viral replications were monitored by HIV-1 p24 and HCV core ELISAs. C. CD4+ T-lymphocytes (0.5 x 10^6 cells) (triplicates) were exposed to HIV-1 JR-CSF. Drugs were initially added 3 days post-viral exposure (2 μM) and then daily (0.5 μM). Viral replications were monitored by HIV-1 p24 and HCV core ELISAs. […] D. Model for the HIV-1/HCV co-culture system.

[1] = tested on: HCV ALV-resistant (D320E/Y321N); assay: HCV Luc-Con1 replicon replication in Huh7.5 cells, luciferase; type: cell-based; conditions: read-out: EC50, inhibition of HCV replication
Protocol: (§1) The GT1b subgenomic firefly luciferase reporter replicon pFK-I389/NS3–3 was provided by R. Bartenschlager. The GT1B subgenomic NS3 (R155Q/A156T), NS5A (L31V, D320E/Y321N, S328P and P313A/P318A), and NS5B (S282T) mutants were created as previously. Half-maximal effective concentration (EC50) measurements were conducted as previously.
(§2) We took advantage of the DAA-resistant HCV genotype 1b Con1 replicons that we previously generated: the NS3 inhibitor-resistant R155Q/A156T NS3, the NS5A inhibitor-resistant L31V NS5A replicon, and the NS5B inhibitor-resistant S282T NS5B replicons. […] EC50 HCV data are expressed in nM whereas EC50 HIV-1 data are expressed in μM.

[2] = tested on: HCV CsA-sensitive (P313A/P318A); assay: as above; type: cell-based; conditions: read-out: EC50, inhibition of HCV replication
Protocol: as §1, §2

[3] = tested on: HCV CsA-sensitive (S328P); assay: as above; type: cell-based; conditions: read-out: EC50, inhibition of HCV replication
Protocol: as §1, §2

[4] = tested on: HCV NS3-resistant (R155Q/A156T); assay: as above; type: cell-based; conditions: read-out: EC50, inhibition of HCV replication
Protocol: as §1, §2

[5] = tested on: HCV NS5A-resistant (L31V); assay: as above; type: cell-based; conditions: read-out: EC50, inhibition of HCV replication
Protocol: as §1, §2

[6] = tested on: HCV NS5B-resistant (S282T); assay: as above; type: cell-based; conditions: read-out: EC50, inhibition of HCV replication
Protocol: as §1, §2

HCV wild-type (Con1b) = assay: as above; type: cell-based; conditions: 72 h, read-out: EC50, inhibition of HCV replication
Protocol: as §1, §2

[7] = biological target: CypA-HIV-1 capsid complex (Homo sapiens, UniProt P62937); assay: CypA-HIV-1 capsid interaction ELISA; type: binding; conditions: 16 h at 4°C
Sequence of CypA-HIV-1 capsid complex (P62937 whole entry, one chain of several): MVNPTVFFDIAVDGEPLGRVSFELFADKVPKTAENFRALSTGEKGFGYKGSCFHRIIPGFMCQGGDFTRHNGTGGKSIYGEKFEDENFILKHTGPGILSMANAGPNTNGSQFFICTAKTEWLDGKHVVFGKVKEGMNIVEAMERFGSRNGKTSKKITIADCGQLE
Protocol: Recombinant GST-CypA, full-length HCV NS5A Con1 (pET-Ub-NS5A Con1-His) and HIV-1 capsid NL4.3 (pET-capsid-His) were expressed and purified as described previously. Inhibition of CypA-HCV NS5A and CypA-HIV-1 capsid interactions by the CypI […] were conducted as we described previously.
CypI are thought to inhibit the infection of HIV-1 and HCV mostly by preventing CypA-HIV-1 capsid and CypA-HCV NS5A interactions, respectively. The potency of CypI at inhibiting these interactions was determined using an ELISA assay previously developed in our laboratory. For analyzing CypA-HCV NS5A interactions, recombinant NS5A-His was added to GST-CypA-coated wells for 16 h at 4°C in the absence or presence of CypI, followed by detection of captured NS5A-His with anti-His antibodies. A similar assay was used for CypA-HIV-1 interactions except with recombinant His-tagged HIV-1 capsid.

[8] = drug treatments begun 3 h before virus addition
[9] = single dose added 3 days post-infection
[10] = Hepatitis C virus, Huh7.5, 72 h

Row | Structure (SMILES) | Effect on HCV replication (in words) (HCV JFH-1; [8]) | Effect on HCV replication (in words) (HCV JFH-1; [9]) | EC50 [1, 10] [nM] | EC50 [2, 10] [nM] | EC50 [3, 10] [nM] | EC50 [4, 10] [nM] | EC50 [5, 10] [nM] | EC50 [6, 10] [nM] | EC50 (HCV wild-type (Con1b); Hepatitis C virus) [nM] | IC50 ([7]; IC50, inhibition of CypA-HIV-1 capsid interactions) [nM] | IC50 ([7]; IC50, inhibition of capsid binding to CypA, Table 2, capsid-His on GST-CypA-coated plates) [nM] | EC50 ([1]; HCV ALV-resistant (D320E/Y321N) replicon, Huh7.5 cells, 72 h) [nM] | EC50 ([2]; HCV CsA-sensitive (P313A/P318A) replicon, Huh7.5 cells, 72 h) [nM] | EC50 ([3]; HCV CsA-sensitive (S328P) replicon, Huh7.5 cells, 72 h) [nM] | EC50 ([4]; HCV NS3-resistant (R155Q/A156T) replicon, Huh7.5 cells, 72 h) [nM] | EC50 ([5]; HCV NS5A-resistant (L31V) replicon, Huh7.5 cells, 72 h) [nM] | EC50 ([6]; HCV NS5B-resistant (S282T) replicon, Huh7.5 cells, 72 h) [nM] | EC50 (HCV wild-type (Con1b)) [nM] | IC50 ([7]; read-out: IC50, inhibition of CypA-HIV-1 capsid interactions) [nM] | IC50 ([7]; Table 2, capsid-His on GST-CypA-coated plates, read-out: IC50, inhibition of capsid binding to CypA) [nM]
1 | C/C=C/C[C@@H](C)[C@@H](O)[C@H]1C(=O)N[C@@H](CC)C(=O)N(C)[C@H](C)C(=O)N(CC)[C@@H](C(C)C)C(=O)N[C@@H](C(C)C)C(=O)N(C)[C@@H](CC(C)C)C(=O)N[C@@H](C)C(=O)N[C@H](C)C(=O)N(C)[C@@H](CC(C)C)C(=O)N(C)[C@@H](CC(C)C)C(=O)N(C)[C@@H](C(C)C)C(=O)N1C [ALV, Alisporivir] | completely prevented | immediately and gradually caused a decline in HCV levels | 44.2 ± 5.8 | 5.2 ± 0.6 | 5.6 ± 1.1 | 17.7 ± 1.9 | 16.5 ± 2.1 | 15.6 ± 2.4 | 16.6 ± 0.8 | 410 ± 50 | 420 ± 110 |  |  |  |  |  |  |  |  | 
2 | CC[C@@H]1NC(=O)[C@H]([C@H](O)[C@H](C)CCCCCCNC(C)=O)N(C)C(=O)[C@H](C(C)C)N(C)C(=O)[C@H](CC(C)C)N(C)C(=O)[C@H](CC(C)C)N(C)C(=O)[C@@H](C)NC(=O)[C@H](C)NC(=O)[C@H](CC(C)C)N(C)C(=O)[C@H](C(C)C)NC(=O)[C@H](CC(C)C)N(C)C(=O)[C@@H](C)N(C)C1=O [CPI-431-32] (cyclo(A[dA][NMeL][NMeL][NMeV][NMeThr(4R-Me,4-(CH2)6NHAc)][Abu][dNMeA][NMeL]V[NMeL])) | completely prevented | immediately and gradually caused a decline in HCV levels |  |  |  |  |  |  |  |  |  | 26.5 ± 3.2 | 4.7 ± 0.2 | 5.1 ± 0.3 | 11.3 ± 0.2 | 8.9 ± 0.4 | 8.3 ± 0.4 | 9.3 ± 0.4 | 210 ± 10 | 230 ± 10
